Data: patent publication US9204639B2, “Pesticide preparation and process for producing the same” (BAYER INTELLECTUAL PROPERTY GMBH, priority 2011, dated 2015)
In brackets after ≈: the same amount, converted by molar mass. Each block holds one molecule with its values, some of them ahead of it.

Assays:
[1] = cited from earlier work
[2] = format: physicochemical
Experimental: To 31.0 g of tefuryltrione and 11.5 g of diphenylamine (equivalent mol to tefuryltrione), 10 mL of toluene was added and refluxed under heating at 90° C. for 1 hour. […] The melting point of the obtained compound was measured using a DSC (Differential Scanning calorimetry) and compared with those of the starting materials (Table 1).
The solubilities of the pesticide active ingredients in toluene and a toluene/isooctane mixture liquid (80/20, v/v) at room temperature were determined (Table 2).

Structure (SMILES): c1ccc(C(c2ccccc2)c2ccccc2)cc1 [triphenylmethane]
Water solubility (in words) [1]: water insoluble

Structure (SMILES): c1ccc(-c2ccccc2)cc1 [biphenyl]
Water solubility [1]: 7 ppm

Solubility, Toluene [2]: 97.8 mg/mL (≈ 221 mM)
Solubility, Toluene/isooctane mixture liquid (80/20, v/v) [2]: 49.4 mg/mL (≈ 112 mM)
Structure (SMILES): CS(=O)(=O)c1ccc(C(=O)C2C(=O)CCCC2=O)c(Cl)c1COCC1CCCO1 (stereo not shown) [Tefuryltrione, tefuryltrione]
